Source: US20100297157A1, “VACCINE THERAPY FOR CHOROIDAL NEOVASCULARIZATION” (priority 2007, published 2010)

Key:
[1] = tested on: tumor model; details: cited from earlier work
[2] = tested on: CNV lesions; assay: Measurement of the CNV size by choroidal flat mount; format: in vivo, mice expressing human HLA-A*0201
Protocol: (§1) C57bl/6 mice with body weight of 20 g to 25 g were obtained from CLEA Japan (Tokyo, Japan). All experiments were conducted in accordance with the Animal Care and Use Committee and the Statement for the Use of Animals in Ophthalmic and Vision Research by the Association for Research in Vision and Opthalmology. Mice used in the experiments express human HLA-A*0201.
(§2) The mice were separated into three groups. PBS, an immunity adjuvant (incomplete Freund's adjuvant (IFA)), or a suspension of a human VEGF receptor 2-derived antigenic peptide and IFA was injected subcutaneously into the axillae twice (day 0 and day 10). […] Subsequently, on day 20, CNV was induced at three sites in both eyes using a semiconductor laser set to φ 200 μm, 200 mW, and 0.02 seconds.
(§3) Experimental CNV was induced as described elsewhere with minor modifications. In short, general anesthesia was induced with an intraperitoneal injection (1 mL/kg) of a mixture (1:1) of ketamine hydrochloride (Ketalar®, Sankyo, Tokyo, Japan) and xylazine hydrochloride (Celactal®, Bayer, Tokyo, Japan). The pupil was dilated using one drop of 0.5% tropicamide (Mydrin® M, Santen Pharmaceutical, Osaka, Japan) for photocoagulation. Six laser photocoagulations were applied to each eye between the major retinal vessels around the optic disc with a diode laser photocoagulator (DC-3000®, NIDEK, Osaka, Japan) and a slit lamp delivery system (SL150, Topcon, Tokyo, Japan) at a spot size of […], duration of 0.02 seconds, and intensity of 200 mW.
A total of 36 mice were used for choroidal flat mount analysis (the number of mice from each group on the third day and the seventh day was 4 and 8, respectively). Three days and seven days after laser treatment, the size of CNV lesion was evaluated using choroidal flat mounts as previously described. The mice were anesthetized and perfused with 1 mL of phosphate buffered saline (PBS) containing 50 mg/mL FITC-conjugated dextran (4.4 kDa, 50 mg/kg body weight; Sigma). Then, the eyes were enucleated, and the cornea and lens were removed, and the entire retina was carefully dissected from the eye cup. Radial cuts were made from the edges of the equator, and the eyecup was flat-mounted on a glass slide with the sclera facing down. The flat-mounted sections were observed under a fluorescence microscope (Olympus DPSO), and the images were captured using a CCD camera. The data were imported into a computer using a software system (Studio lite). […] The data were expressed as mean±standard error.
(§4) The fluorescein fluorescent fundus angiography scores were evaluated using Mann-Whitney U test. The size of CNV lesion was evaluated by ANOVA followed by Dunnett's post hoc test. […]

[3] = tested on: CNV lesions; assay: Evaluation of the grade of CNV by fluorescein angiography (leakage from laser-induced CNV lesions); format: in vivo, mice expressing human HLA-A*0201
Protocol: as §1, §2, §3
Three and seven days after CNV induction (on day 23 and day 27), a total of 169 animals were used to examine the effect on leakage from the CNV lesions (on the third day, the number of animals from the control group, low-dose group, and high-dose group was 41, 34, and 18, respectively; on the seventh day, the number of animals from the control group, low-dose group, and high-dose group was 51, 15, and 10, respectively). […]
as §4

[4] = tested on: VEGF; assay: VEGF up-regulation in experimental CNV; details: in vivo
[5] = seventh day, low-dose group vs control group

For “VIAMFFWLL (IFA emulsion; listed as Homo sapiens) [nine amino acids from position 773 of human VEGFR-2; injected as a suspension with IFA]”, the antiangiogenic effect [1] is listed as “confirmed to have antiangiogenic effect”, the CNV growth ([2]; in vivo, effect observed only on the seventh day and not on the third day) is listed as “inhibits CNV growth” and the CNV lesion size ([2]; seventh day, high-dose group vs control group) is listed as “significantly decreased”. The CNV lesion size [2, 5] was “significantly decreased”, the CNV lesion size ([2]; third day, low-dose and high-dose groups vs control group) was “No difference was observed” and the “fluorescein leakage from the CNV lesions” value ([3]; seventh day, high-dose group vs control) was “lower”. The “leakage from CNV lesions” value [3, 5] was “not statistically significant, the leakage from CNV lesions was lower”, the “degree of fluorescein leakage from CNV lesions” value ([3]; third day after CNV induction, low-dose and high-dose groups vs control group, s.c. injection day 0 and day 10) was “no difference was observed” and the VEGF up-regulation [4] was “suppresses VEGF up-regulation”.
